# Measurements reported in patent US7576207B2, “Spirocyclic heterocyclic derivatives and methods of their use” (Adolor Corporation, priority 2006, dated 2009).
# pEC50, pKi: −log10 of the molar value.
# Columns and labels:
# [1] = molecular target: T1, cloned human δ opioid receptors (Homo sapiens, UniProt P41143); test: [3H]diprenorphine receptor binding, δ opioid receptor; conditions: inhibition of [3H]diprenorphine binding; Cheng-Prusoff correction; read-out: affinity (expressed as Ki value), δ opioid receptor
# T1 construct: expressed in transfected cells; host or cells: CHO cells
# Protocol: (§1) The potencies of the final compounds found in Examples 1A-9D were determined by testing the ability of a range of concentrations of each compound to inhibit the binding of the non-selective opioid antagonist, [^3H]diprenorphine, to the cloned human μ, ? and δ opioid receptors, expressed in separate cell lines. IC50 values were obtained by nonlinear analysis of the data using GraphPad Prism version 3.00 for Windows (GraphPad Software, San Diego). Ki values were obtained by Cheng-Prusoff corrections of IC50 values.
# (§2) The receptor binding method (DeHaven and DeHaven-Hudkins, 1998) was a modification of the method of Raynor et al. (1994). […] The filters were rinsed 4 times with 1 mL of cold 50 mM Tris HCl, pH 7.8 and radioactivity remaining on the filters determined by scintillation spectroscopy. Nonspecific binding was determined by the minimum values of the titration curves and was confirmed by separate assay wells containing 10 μM naloxone. Ki values were determined by Cheng-Prusoff corrections of IC50 values derived from nonlinear regression fits of 12 point titration curves using GraphPad Prism® version 3.00 for Windows (GraphPad Software, San Diego, Calif.).
# (§3) To determine the equilibrium dissociation constant for the inhibitors (Ki), radioligand bound (cpm) in the presence of various concentrations of test compounds was measured. […]
# [2] = molecular target: T2, cloned human μ opioid receptors (Homo sapiens, UniProt P35372); test: [3H]diprenorphine receptor binding, μ opioid receptor; conditions: inhibition of [3H]diprenorphine binding; Cheng-Prusoff correction; read-out: affinity (expressed as Ki value), μ opioid receptor
# T2 construct: expressed in transfected cells; host or cells: CHO cells
# Protocol: as §1, §2, §3
# [3] = molecular target: T3, cloned human κ opioid receptors (Homo sapiens, UniProt P41145); test: [3H]diprenorphine receptor binding, κ opioid receptor; conditions: inhibition of [3H]diprenorphine binding; Cheng-Prusoff correction; read-out: affinity (expressed as Ki value), κ opioid receptor
# T3 construct: expressed in transfected cells; host or cells: CHO cells
# Protocol: as §1, §2, §3
# [4] = molecular target: T1, cloned human δ opioid receptors; test: Receptor-mediated [35S]GTPγS binding, δ opioid receptor; type: biochemical; conditions: stimulation of [35S]GTPγS binding to membranes containing cloned human δ opioid receptors; read-out: in vitro δ agonist activity EC50
# Protocol: The potency and efficacy of compounds at each of the receptors are assessed by modifications of the methods of Selley, et al., 1997 and Traynor and Nahorski, 1995 using receptor-mediated [S]GTPγS binding in the same membrane preparations used to measure receptor binding. Assays are carried out in 96-well FlashPlates® (Perkin Elmer Life Sciences, Inc, Boston, Mass.). Membranes prepared from CHO cells expressing the appropriate receptor (50-100 μg of protein) are added to assay mixtures containing agonist with or without antagonists, 100 pM [^35S]GTPγS (approx. 100,000 dpm), 3.0 μM GDP, 75 mM NaCl, 15 mM MgCl2, 1.0 mM ethylene glycol-bis(β-aminoethyl ether)-N,N,N′,N′-tetracetic acid, 1.1 mM dithiothreitol, 10 μg/mL leupeptin, 10 μg/mL pepstatin A, 200 μg/mL bacitracin, and 0.5 μg/mL aprotinin in 50 mM Tris-HCl buffer, pH 7.8. After incubation at room temperature for one hour, the plates are sealed, centrifuged at 800×g in a swinging bucket rotor for 5 minutes and bound radioactivity determined with a TopCount microplate scintillation counter (Packard Instrument Co., Meriden, Conn.).
# EC50 values for agonists are determined from nonlinear regression fits of 8- or 12-point titration curves to the 4-parameter equation for a sigmoidal dose-response with a slope factor of 1.0 using GraphPad Prism® version 3.00 for Windows (GraphPad Software, San Diego, Calif.).
# T1 sequence (P41143 whole entry): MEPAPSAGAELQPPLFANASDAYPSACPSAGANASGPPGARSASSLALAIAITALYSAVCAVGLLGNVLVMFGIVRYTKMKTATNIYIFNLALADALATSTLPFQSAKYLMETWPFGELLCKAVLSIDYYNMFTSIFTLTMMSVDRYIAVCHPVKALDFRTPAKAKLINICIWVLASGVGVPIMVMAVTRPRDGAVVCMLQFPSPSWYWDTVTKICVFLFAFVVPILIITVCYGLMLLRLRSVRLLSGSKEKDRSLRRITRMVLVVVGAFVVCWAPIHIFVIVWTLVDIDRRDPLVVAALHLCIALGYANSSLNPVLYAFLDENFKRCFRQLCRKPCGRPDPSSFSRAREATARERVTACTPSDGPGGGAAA
# T2 sequence (P35372 whole entry): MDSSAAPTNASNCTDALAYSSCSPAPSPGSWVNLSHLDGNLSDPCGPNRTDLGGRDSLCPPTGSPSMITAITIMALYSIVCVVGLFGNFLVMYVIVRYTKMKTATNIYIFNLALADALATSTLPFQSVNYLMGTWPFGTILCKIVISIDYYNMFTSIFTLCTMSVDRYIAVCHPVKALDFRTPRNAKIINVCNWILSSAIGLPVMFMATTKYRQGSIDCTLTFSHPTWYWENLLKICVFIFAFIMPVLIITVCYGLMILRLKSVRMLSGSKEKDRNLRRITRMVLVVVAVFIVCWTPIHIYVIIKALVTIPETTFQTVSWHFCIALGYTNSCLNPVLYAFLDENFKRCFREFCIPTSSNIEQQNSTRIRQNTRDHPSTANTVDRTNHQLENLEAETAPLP
# T3 sequence (P41145 whole entry): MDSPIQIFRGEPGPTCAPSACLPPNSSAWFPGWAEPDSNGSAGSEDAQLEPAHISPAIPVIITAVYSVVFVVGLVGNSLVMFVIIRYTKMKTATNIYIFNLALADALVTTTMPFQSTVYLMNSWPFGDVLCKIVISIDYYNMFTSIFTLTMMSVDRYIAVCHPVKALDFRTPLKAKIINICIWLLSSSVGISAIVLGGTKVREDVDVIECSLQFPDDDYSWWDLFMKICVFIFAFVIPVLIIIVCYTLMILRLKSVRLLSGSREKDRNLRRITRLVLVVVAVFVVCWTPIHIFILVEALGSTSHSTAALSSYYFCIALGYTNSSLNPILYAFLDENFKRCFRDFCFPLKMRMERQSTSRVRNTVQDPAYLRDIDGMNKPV
smiles,measurement,setting,value
"CCNC(=O)c1ccc2c(c1)C(CCCCC(=O)N(CC)CC)CC1(CCNCC1)C2 (stereo not shown) [Example 9D, 4-[(4-N,N-diethylaminocarbonyl)butyl]-spiro[6-N-ethylcarbonyl-1,2,3,4-tetrahydronaphthalene-2,4′-piperidine]]",pKi,[1],9.33
same,pKi,[2],6.20
same,pKi,[3],6.16
same,pEC50,[4],8.09
